# Tested on: Mahoney strain of poliovirus
# Format: cell-based, Poliovirus Type I Mahoney
# Settings: 293 T; infectivity; PFU
smiles,measurement,value
"COc1ccc2[nH]c([S+]([O-])Cc3ncc(C)c(OC)c3C)nc2n1 (stereo not shown) [Tenatoprazole, tenatoprazole]","Virus Production (resistant or susceptible), PV",Resistant

# Reference: PMC7055211 (Scientific Reports, 2020)
